pIC50: −log10 of the molar value.
How the values were obtained:
[1] = molecular target: T1, human recombinant LRRK2 protein (Homo sapiens, UniProt Q5S007); assay: LRRK2 kinase activity assay (Eurofins, gamma-33P-ATP, filtermat scintillation counting); format: biochemical; conditions: human recombinant LRRK2, 40 minutes at room temperature
T1 construct: purchased Eurofins

[2] = system: HS746T cancer cells; assay: Anticancer activity, cell viability by CCK-8, HS746T; format: cell-based; conditions: 72 hours
How it was run: (§1)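 HS746T or HepG2 cells seeded at 4,000 cells/well, left 24 h, then exposed to compounds for 72 h. Viability measured by CCK-8 and expressed as % of untreated control.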

[3] = system: HepG2 cancer cells; assay: Anticancer activity, cell viability by CCK-8, HepG2; format: cell-based; conditions: HepG2, 10 μM, 72 hours
How it was run: as §1

[4] = molecular target: T2, human recombinant MLK3 protein (Homo sapiens, UniProt Q16584); assay: MLK3 kinase activity assay (Eurofins, gamma-33P-ATP, filtermat scintillation counting); format: biochemical; conditions: human recombinant MLK3, 120 minutes at room temperature
T2 construct: purchased Eurofins
T2 sequence (Q16584 whole entry): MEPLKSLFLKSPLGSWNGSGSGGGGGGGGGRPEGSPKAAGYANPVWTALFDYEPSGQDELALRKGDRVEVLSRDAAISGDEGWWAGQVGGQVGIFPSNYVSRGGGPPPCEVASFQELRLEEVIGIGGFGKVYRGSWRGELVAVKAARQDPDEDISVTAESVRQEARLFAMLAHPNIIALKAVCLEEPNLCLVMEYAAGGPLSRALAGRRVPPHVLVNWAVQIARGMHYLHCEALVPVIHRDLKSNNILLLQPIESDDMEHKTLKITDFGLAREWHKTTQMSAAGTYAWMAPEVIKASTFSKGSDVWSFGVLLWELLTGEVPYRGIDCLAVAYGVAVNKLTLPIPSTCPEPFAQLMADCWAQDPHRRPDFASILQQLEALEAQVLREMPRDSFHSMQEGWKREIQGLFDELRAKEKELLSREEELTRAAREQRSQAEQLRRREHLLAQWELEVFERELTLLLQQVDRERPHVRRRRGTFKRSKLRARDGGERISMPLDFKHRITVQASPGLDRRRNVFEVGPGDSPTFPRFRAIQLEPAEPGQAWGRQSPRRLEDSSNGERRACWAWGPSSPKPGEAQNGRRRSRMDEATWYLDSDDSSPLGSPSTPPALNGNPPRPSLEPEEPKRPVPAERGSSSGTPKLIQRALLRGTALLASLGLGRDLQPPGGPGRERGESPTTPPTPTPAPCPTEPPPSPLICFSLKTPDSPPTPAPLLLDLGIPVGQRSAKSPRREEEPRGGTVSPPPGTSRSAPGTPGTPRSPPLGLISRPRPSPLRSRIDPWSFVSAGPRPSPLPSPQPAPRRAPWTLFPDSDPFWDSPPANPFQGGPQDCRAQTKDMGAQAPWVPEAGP

T1 sequence (Q5S007 whole entry): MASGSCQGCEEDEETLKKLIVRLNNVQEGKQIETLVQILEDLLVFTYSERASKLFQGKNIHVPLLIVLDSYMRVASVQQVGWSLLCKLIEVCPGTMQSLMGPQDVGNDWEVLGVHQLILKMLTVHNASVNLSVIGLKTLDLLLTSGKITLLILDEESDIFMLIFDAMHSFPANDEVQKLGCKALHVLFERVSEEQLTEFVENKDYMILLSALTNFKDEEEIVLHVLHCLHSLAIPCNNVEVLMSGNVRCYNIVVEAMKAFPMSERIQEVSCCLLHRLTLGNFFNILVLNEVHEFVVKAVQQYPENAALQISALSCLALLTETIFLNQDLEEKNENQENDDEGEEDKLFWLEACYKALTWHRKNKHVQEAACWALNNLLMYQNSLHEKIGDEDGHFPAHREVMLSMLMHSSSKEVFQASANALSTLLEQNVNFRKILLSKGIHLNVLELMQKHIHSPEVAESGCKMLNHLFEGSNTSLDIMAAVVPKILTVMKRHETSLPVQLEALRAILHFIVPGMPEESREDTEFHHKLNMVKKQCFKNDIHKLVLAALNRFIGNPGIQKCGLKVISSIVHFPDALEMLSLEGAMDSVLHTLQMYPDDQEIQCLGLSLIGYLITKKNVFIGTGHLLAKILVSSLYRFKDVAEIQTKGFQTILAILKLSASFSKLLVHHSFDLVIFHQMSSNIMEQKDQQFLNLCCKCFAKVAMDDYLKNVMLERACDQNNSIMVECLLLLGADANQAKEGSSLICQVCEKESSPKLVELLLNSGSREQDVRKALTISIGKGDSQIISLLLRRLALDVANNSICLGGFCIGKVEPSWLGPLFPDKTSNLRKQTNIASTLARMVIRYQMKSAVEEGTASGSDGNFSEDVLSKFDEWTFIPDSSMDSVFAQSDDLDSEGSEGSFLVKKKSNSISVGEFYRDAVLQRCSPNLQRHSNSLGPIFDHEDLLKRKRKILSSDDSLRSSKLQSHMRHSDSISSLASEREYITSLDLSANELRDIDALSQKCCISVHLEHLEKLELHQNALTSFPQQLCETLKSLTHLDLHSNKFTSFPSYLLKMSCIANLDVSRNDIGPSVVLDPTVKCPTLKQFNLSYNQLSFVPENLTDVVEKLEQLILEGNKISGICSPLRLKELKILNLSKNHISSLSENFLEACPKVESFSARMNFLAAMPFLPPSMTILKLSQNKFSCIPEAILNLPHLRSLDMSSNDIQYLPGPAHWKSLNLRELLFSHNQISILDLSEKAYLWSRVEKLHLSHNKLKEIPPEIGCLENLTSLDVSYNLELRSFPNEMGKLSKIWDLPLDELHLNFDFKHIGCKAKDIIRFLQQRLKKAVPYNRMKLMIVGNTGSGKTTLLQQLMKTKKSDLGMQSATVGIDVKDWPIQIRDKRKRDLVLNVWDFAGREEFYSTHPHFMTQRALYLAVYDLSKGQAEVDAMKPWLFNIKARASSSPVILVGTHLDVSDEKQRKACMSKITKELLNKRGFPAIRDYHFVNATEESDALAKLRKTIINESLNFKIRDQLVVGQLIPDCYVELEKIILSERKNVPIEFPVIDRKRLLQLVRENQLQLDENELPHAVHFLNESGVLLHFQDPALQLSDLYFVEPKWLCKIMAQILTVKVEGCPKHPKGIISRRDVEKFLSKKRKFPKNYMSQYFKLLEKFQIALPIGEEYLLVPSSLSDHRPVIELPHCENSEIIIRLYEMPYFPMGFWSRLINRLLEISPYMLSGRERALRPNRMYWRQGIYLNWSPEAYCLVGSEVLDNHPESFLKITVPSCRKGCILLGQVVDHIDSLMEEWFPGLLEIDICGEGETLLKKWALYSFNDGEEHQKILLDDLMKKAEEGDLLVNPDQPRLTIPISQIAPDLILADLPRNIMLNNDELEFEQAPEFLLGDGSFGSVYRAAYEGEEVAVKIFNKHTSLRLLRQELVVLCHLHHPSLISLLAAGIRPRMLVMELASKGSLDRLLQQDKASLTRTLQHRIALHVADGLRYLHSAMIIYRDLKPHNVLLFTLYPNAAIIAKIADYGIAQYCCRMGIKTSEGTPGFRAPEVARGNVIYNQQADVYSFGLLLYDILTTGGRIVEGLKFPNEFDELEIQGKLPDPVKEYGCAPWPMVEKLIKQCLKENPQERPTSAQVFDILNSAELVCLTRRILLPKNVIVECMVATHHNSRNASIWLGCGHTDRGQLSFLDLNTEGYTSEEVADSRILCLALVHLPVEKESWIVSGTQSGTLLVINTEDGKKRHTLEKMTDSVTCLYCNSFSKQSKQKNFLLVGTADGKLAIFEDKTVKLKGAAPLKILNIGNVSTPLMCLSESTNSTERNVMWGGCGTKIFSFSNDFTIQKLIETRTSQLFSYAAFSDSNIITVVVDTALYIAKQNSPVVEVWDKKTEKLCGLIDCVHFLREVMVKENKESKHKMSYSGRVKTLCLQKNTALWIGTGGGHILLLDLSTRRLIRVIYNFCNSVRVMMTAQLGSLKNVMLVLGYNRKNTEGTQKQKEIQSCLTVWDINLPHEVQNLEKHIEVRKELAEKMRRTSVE

SMILES | pIC50 [1] | Cell viability (% of Con. 10 μM) HS746T [2] | Cell viability (% of Con. 10 μM) HepG2 [3] | pIC50 [4]
CC(=O)N1CC=C(c2n[nH]c3ccc(Nc4ncc(Cl)c(Nc5ccccc5P(C)(C)=O)n4)cc23)CC1 [compound 99, 1-(4-(5-((5-Chloro-4-((2-(dimethylphosphoryl)phenyl)amino)pyrimidin-2-yl)amino)-1H-indazol-3-yl)-3,6-dihydropyridin-1(2H)-yl)ethan-1-one] | 8.00 to 9.00 | 9 % of Con. | 26 % of Con. | 8.00 to 9.00
CP(C)(=O)c1ccccc1Nc1nc(Nc2ccc3[nH]nc(-c4ccc(CO)o4)c3c2)ncc1Cl [compound 101, (2-((5-chloro-2-((3-(5-(hydroxymethyl)furan-2-yl)-1H-indazol-5-yl)amino)pyrimidin-4-yl)amino)phenyl)dimethylphosphine oxide] | 7.00 to 8.00 | 13 % of Con. | 56 % of Con. | 8.00 to 9.00
CP(C)(=O)c1ccccc1Nc1nc(Nc2ccc3[nH]nc(-c4ccncc4)c3c2)ncc1Cl [compound 104, (2-((5-Chloro-2-((3-(pyridin-4-yl)-1H-indazol-5-yl)amino)pyrimidin-4-yl)amino)phenyl)dimethylphosphine oxide] | 8.00 to 9.00 | 11 % of Con. | 30 % of Con. | 8.00 to 9.00
CP(C)(=O)c1ccccc1Nc1nc(Nc2ccc3[nH]nc(-c4ccc(C#N)cc4)c3c2)ncc1Cl [compound 105, 4-(5-((5-Chloro-4-((2-(dimethylphosphoryl)phenyl)amino)pyrimidin-2-yl)amino)-1H-indazol-3-yl)benzonitrile] | 7.00 to 8.00 | 23 % of Con. | 55 % of Con. | 8.00 to 9.00
CC(=O)c1ccc(-c2n[nH]c3ccc(Nc4ncc(Cl)c(Nc5ccccc5P(C)(C)=O)n4)cc23)cc1 [compound 106, 1-(4-(5-((5-chloro-4-((2-(dimethylphosphoryl)phenyl)amino)pyrimidin-2-yl)amino)-1H-indazol-3-yl)phenyl)ethan-1-one] | 7.00 to 8.00 | 17 % of Con. | 75 % of Con. | 8.00 to 9.00
CP(C)(=O)c1ccccc1Nc1nc(Nc2ccc3[nH]nc(-c4ccc(F)c(Cl)c4)c3c2)ncc1Cl [compound 107, (2-((5-Chloro-2-((3-(3-chloro-4-fluorophenyl)-1H-indazol-5-yl)amino)pyrimidin-4-yl)amino)phenyl)dimethylphosphine oxide] | 8.00 to 9.00 | 11 % of Con. | 63 % of Con. | 8.00 to 9.00
CP(C)(=O)c1ccccc1Nc1nc(Nc2ccc3[nH]nc(-c4ccc(O)cc4)c3c2)ncc1Cl [compound 108, (2-((5-chloro-2-((3-(4-hydroxyphenyl)-1H-indazol-5-yl)amino)pyrimidin-4-yl)amino)phenyl)dimethylphosphine oxide] | 7.00 to 8.00 | 8 % of Con. | 67 % of Con. | 8.00 to 9.00
COc1ccc(-c2n[nH]c3ccc(Nc4ncc(Cl)c(Nc5ccccc5P(C)(C)=O)n4)cc23)cc1F [compound 109] | 7.00 to 8.00 | 25 % of Con. | 53 % of Con. | 8.00 to 9.00
CP(C)(=O)c1ccccc1Nc1nc(Nc2ccc3[nH]nc(-c4ccc(OC(F)(F)F)cc4)c3c2)ncc1Cl [compound 110, (2-((5-Chloro-2-((3-(4-(trifluoromethoxy)phenyl)-1H-indazol-5-yl)amino)pyrimidin-4-yl)amino)phenyl)dimethylphosphine oxide] | 7.00 to 8.00 | 12 % of Con. | 24 % of Con. | 8.00 to 9.00
CP(C)(=O)c1ccccc1Nc1nc(Nc2ccc3[nH]nc(-c4ccc(Cl)c(C(F)(F)F)c4)c3c2)ncc1Cl [compound 111, (2-((5-Chloro-2-((3-(4-chloro-3-(trifluoromethyl)phenyl)-1H-indazol-5-yl)amino)pyrimidin-4-yl)amino)phenyl)dimethylphosphine oxide] | 7.00 to 8.00 | 7 % of Con. | 7 % of Con. | 8.00 to 9.00
Cc1ccc(-c2n[nH]c3ccc(Nc4ncc(Cl)c(Nc5ccccc5P(C)(C)=O)n4)cc23)cc1Cl [compound 112, (2-((5-Chloro-2-((3-(3-chloro-4-methylphenyl)-1H-indazol-5-yl)amino)pyrimidin-4-yl)amino)phenyl)dimethylphosphine oxide] | 7.00 to 8.00 | 7 % of Con. | 6 % of Con. | 8.00 to 9.00
COc1cc(Cl)cc(-c2n[nH]c3ccc(Nc4ncc(Cl)c(Nc5ccccc5P(C)(C)=O)n4)cc23)c1 [compound 113, (2-((5-Chloro-2-((3-(3-chloro-5-methoxyphenyl)-1H-indazol-5-yl)amino)pyrimidin-4-yl)amino)phenyl)dimethylphosphine oxide] | 7.00 to 8.00 | 26 % of Con. | 16 % of Con. | 8.00 to 9.00
CP(C)(=O)c1ccccc1Nc1nc(Nc2ccc3[nH]nc(-c4ccc(S(C)(=O)=O)cc4)c3c2)ncc1Cl [compound 114, (2-((5-Chloro-2-((3-(4-(methylsulfonyl)phenyl)-1H-indazol-5-yl)amino)pyrimidin-4-yl)amino)phenyl)dimethylphosphine oxide] | 7.00 to 8.00 | 33 % of Con. | 68 % of Con. | 8.00 to 9.00
CC(C)Oc1cc(F)cc(-c2n[nH]c3ccc(Nc4ncc(Cl)c(Nc5ccccc5P(C)(C)=O)n4)cc23)c1 [compound 115, (2-((5-Chloro-2-((3-(3-fluoro-5-isopropoxyphenyl)-1H-indazol-5-yl)amino)pyrimidin-4-yl)amino)phenyl)dimethylphosphine oxide] | 8.00 to 9.00 | 10 % of Con. | 50 % of Con. | 8.00 to 9.00
CP(C)(=O)c1ccccc1Nc1nc(Nc2ccc3[nH]nc(-c4cccc(C#N)c4)c3c2)ncc1Cl [compound 116, 3-(5-((5-Chloro-4-((2-(dimethylphosphoryl)phenyl)amino)pyrimidin-2-yl)amino)-1H-indazol-3-yl)benzonitrile] | 7.00 to 8.00 | 19 % of Con. | 32 % of Con. | 8.00 to 9.00
CC(C)(C)OC(=O)N1CCN(c2ccc(-c3n[nH]c4ccc(Nc5ncc(Cl)c(Nc6ccccc6P(C)(C)=O)n5)cc34)cc2)CC1 [compound 117, Tert-butyl 4-(4-(5-((5-chloro-4-((2-(dimethylphosphoryl)phenyl)amino)pyrimidin-2-yl)amino)-1H-indazol-3-yl)phenyl)piperazine-1-carboxylate] | 7.00 to 8.00 | 20 % of Con. | 68 % of Con. | 8.00 to 9.00
CP(C)(=O)c1ccccc1Nc1nc(Nc2ccc3[nH]nc(-c4cccc(O)c4)c3c2)ncc1Cl [compound 118, (2-((5-chloro-2-((3-(3-hydroxyphenyl)-1H-indazol-5-yl)amino)pyrimidin-4-yl)amino)phenyl)dimethylphosphine oxide] | 7.00 to 8.00 | 5 % of Con. | 43 % of Con. | 8.00 to 9.00

From patent US20240270698A2, “NOVEL PYRIMIDINE DERIVATIVE AND USE THEREOF” (KOREA RESEARCH INSTITUTE OF CHEMICAL TECHNOLOGY, priority 2019, published 2024)
